Measurements: patent publication US20240109912A1, “TRICYCLIC PYRIMIDINES AS CYCLIN-DEPENDENT KINASE 7 (CDK7) INHIBITORS” (JANSSEN PHARMACEUTICA NV, priority 2020, published 2024)
“And” between values parts separate entries of the source, which are not always exact repeats. Identical values can stand only once. Like-named read-outs stand apart in the source and are kept apart here.

Columns and labels:
[1] = system: RNA polymerase II Serine 5 phosphorylation (CDK7) in A549 cells
[2] = system: RNA polymerase II Serine 5 phosphorylation in A549 cells overexpressing CDK7 mutant (C312S); experiment: Imaging-based cellular RNA PolII Ser5 phosphorylation assay in A549 cells overexpressing CDK7-mutant (C312S); assay type: cell-based, human; settings: for CDK7_ A549 mutant hCDK7(pIC50): A549 cells overexpressing CDK7 mutant (C312S); for IC50: Homo sapiens, A549, A549 cells overexpressing CDK7 mutant (C312S), read-out: CDK7_ A549 mutant hCDK7(pIC50) (converted)
In short: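 A stably transduced A549 pool overexpressing CDK7 C312S, a mutant that blocks covalent binding at Cys312, while retaining endogenous wild-type CDK7 was used. Ser5 phosphorylation was measured by imaging, and IC50 values were derived.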

[3] = biological target: CDK7/cyclinH/MAT1 trimeric complex (Homo sapiens (Human), UniProt P50613); experiment: In vitro CDK7 assay, potency of irreversible covalent inhibitors (kinact/KI)
[4] = CDK7 (20 nM enz.) (KI, μM), 20 nM enz.
[5] = read-out: CDK7 (20 nM enz.) (kinact, s^−1), 20 nM enz.
[6] = read-out: CDK7 (20 nM enz.) (kinact/ KI, M^−1*s^−1), 20 nM enz.
[7] = read-out: CDK7 (kinact, s^−1), Table B
[8] = read-out: CDK7 (kinact/KI, M^−1*s^−1), Table B
[9] = read-out: CDK7 (20 nM enz.) (kobs/[I], M^−1*s^−1), 20 nM enz.

Chain of CDK7/cyclinH/MAT1 trimeric complex (P50613 whole entry): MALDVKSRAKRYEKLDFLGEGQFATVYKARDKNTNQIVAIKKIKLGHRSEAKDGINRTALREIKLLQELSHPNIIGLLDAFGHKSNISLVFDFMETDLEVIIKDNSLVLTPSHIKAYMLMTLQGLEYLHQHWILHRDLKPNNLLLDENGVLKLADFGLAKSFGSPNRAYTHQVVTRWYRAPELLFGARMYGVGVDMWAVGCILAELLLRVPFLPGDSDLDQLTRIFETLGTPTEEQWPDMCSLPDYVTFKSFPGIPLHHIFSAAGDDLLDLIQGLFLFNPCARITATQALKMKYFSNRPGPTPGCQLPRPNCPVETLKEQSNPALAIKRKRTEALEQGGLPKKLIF
Chain of CDK7/cyclinH/MAT1 trimeric complex (P51946 whole entry partner): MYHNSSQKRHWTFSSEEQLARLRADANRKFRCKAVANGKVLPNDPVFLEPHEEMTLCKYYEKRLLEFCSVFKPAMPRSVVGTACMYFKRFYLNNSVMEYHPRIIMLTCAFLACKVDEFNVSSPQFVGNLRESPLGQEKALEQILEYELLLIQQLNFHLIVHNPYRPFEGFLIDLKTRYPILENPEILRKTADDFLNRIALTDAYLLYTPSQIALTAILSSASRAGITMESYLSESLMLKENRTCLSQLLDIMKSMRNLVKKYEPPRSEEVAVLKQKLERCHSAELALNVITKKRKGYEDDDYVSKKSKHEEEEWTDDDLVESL
Chain of CDK7/cyclinH/MAT1 trimeric complex (P51948 whole entry partner): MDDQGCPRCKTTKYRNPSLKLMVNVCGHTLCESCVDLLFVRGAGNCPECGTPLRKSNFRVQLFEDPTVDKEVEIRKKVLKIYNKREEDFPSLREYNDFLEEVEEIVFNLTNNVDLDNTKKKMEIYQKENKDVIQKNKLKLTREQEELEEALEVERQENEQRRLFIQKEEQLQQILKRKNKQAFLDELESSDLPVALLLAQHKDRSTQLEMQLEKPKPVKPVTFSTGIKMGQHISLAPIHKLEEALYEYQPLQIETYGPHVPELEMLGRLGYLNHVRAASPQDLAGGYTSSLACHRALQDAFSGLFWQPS

Row | Compound | melting point [°C] | IC50 [1] | IC50 [2] [nM] | Ki [3, 4] | kinact [3, 5] [s⁻¹] | kinact/KI [3, 6] [M⁻¹ s⁻¹] | further results
1 | C=CC(=O)N1CC(N2CCC(c3ccc4c(c3)Nc3ncnc(C5=CCOCC5)c3CO4)CC2)C1 [compound 39] | 243 | 2240 nM | > 10000 | 0.61 µM | 5.09e-05 | 83.4 | –
2 | C=CC(=O)N1CC(N2CCC(c3ccc4c(c3)Nc3ncnc(N5CCOCC5)c3C(CC)O4)CC2)C1 (stereo not shown) [compound 66] | 118 | 933 nM | > 10000 | 0.528 µM | 4.52e-05 | 85.5 | –
3 | C=CC(=O)N1CC(N2CCC(c3cc4c(cn3)O[C@H](C)c3c(ncnc3N3CCOCC3)N4)CC2)C1 (single isomer, unassigned) [compound 60] | 250 | 257 nM | – | 0.283 µM | – | – | CDK7_ A549 mutant hCDK7(pIC50) [2]: <5; CDK7 (20 nM enz.) (kinact, s^−1) ([3]; 20 nM enz.): 5.21e-05 s⁻¹; CDK7 (20 nM enz.) (kinact/ KI, M^−1*s^−1) ([3]; 20 nM enz.): 184.255 M⁻¹ s⁻¹
4 | C=CC(=O)N1CCC(N2CCC(c3ccc4c(c3)Nc3ncnc(N5CCOCC5)c3CO4)CC2)CC1 [compound 2] | 211 | 331 nM and 324 nM | > 10000 | 0.754 µM | 6.34e-05 | 98.7 | Ki ([3]; CDK7 (KI(μM)), Table B): 0.365 µM; kinact [3, 7]: 0.000198 s⁻¹; kinact/KI [3, 8]: 543 M⁻¹ s⁻¹
5 | C=CC(=O)N1CCC(N2CCN(c3cc(C)c4c(c3)Nc3ncnc(N5CCS(=O)(=O)CC5)c3CO4)CC2)CC1 [compound 89] | 203 | 955 nM | > 10000 | 0.128 µM | 5.45e-05 | 425 | –
6 | C=CC(=O)N1CC(N2CCC(c3cc(F)c4c(c3)Nc3ncnc(-c5cnn(C)c5)c3[C@H](C)O4)CC2)C1 (single isomer, unassigned) [compound 53] | 260 | > 10000 nM | > 10000 | – | – | – | kinact/KI [3, 9]: 3.8 M⁻¹ s⁻¹
7 | C=CC(=O)N1CC[C@@H](N2CC(c3cc4c(c(C5CC5)c3)OCc3c(ncnc3N3CCS(=O)(=O)CC3)N4)C2)C1 (single isomer, unassigned) [compound 93] | > 300 | 427 nM | > 10000 | 0.277 µM | 6.26e-05 | 226 | –
8 | C=CC(=O)N1CC(N2CCC(c3cc(F)c4c(c3)Nc3ncnc(N5CCOCC5)c3[C@@H](C)O4)CC2)C1 (single isomer, unassigned) [compound 46] | 175 | 209 nM | > 10000 | 0.094 µM | 5.18e-05 | 667 | –
9 | C=CC(=O)N1CC(N2CC[C@H](c3ccc4c(c3)Nc3ncnc(N5CCOCC5)c3CO4)[C@H](C)C2)C1 (single isomer, unassigned) [compound 37] | 217 | 912 nM and 676 nM | > 10000 | – | – | – | Ki ([3]; CDK7 (KI(μM)), Table B): 0.164 µM and 0.152 µM; CDK7 (kinact, s^−1) ([3]; Table B): 7.29e-05 s⁻¹; CDK7 (kinact/KI, M^−1*s^−1) ([3]; Table B): 478.485 M⁻¹ s⁻¹; kinact [3, 7]: 0.000137 s⁻¹; kinact/KI [3, 8]: 832 M⁻¹ s⁻¹
10 | C=CC(=O)N1CCC(N2CC(c3cc(C)c4c(c3)Nc3ncnc(N5CCOCC5)c3CO4)C2)C1 (stereo not shown) [compound 16] | 151 | 457 nM | > 10000 | 0.192 µM | 5.05e-05 | 263 | –
11 | C=CC(=O)N1CCC(N2CC(c3cc(C)c4c(c3)Nc3ncnc(N5CCOCC5)c3CO4)C2)CC1 [compound 14] | 191 | 468 nM | > 10000 | 0.183 µM | 3.46e-05 | 189 | –
12 | C=CC(=O)N1CC(N2CCC(c3cc(F)c4c(c3)Nc3ncnc(-c5cnn(C)c5)c3[C@@H](C)O4)CC2)C1 (single isomer, unassigned) [compound 52] | 245 | 123 nM | > 10000 | 0.0825 µM | 5.9e-05 | 714 | –
13 | C=CC(=O)N1CC(N2CCC(c3cc(Cl)c4c(c3)Nc3ncnc(N5CCS(=O)(=O)CC5)c3CO4)CC2)C1 [compound 43] | 296 | 132 nM | > 10000 | – | – | – | kinact/KI [3, 9]: 1490 M⁻¹ s⁻¹
14 | C=CC(=O)N1CC[C@@H](N2CC(c3cc(C)c4c(c3)Nc3ncnc(N5CCS(=O)(=O)CC5)c3CO4)C2)C1 [compound 92] | 241 | 427 nM | > 10000 | – | – | – | –
15 | C=CC(=O)N1CC(N2CC=C(c3ccc4c(c3)Nc3ncnc(N5CCOCC5)c3CO4)CC2)C1 [compound 33] | 193 | 2340 nM | > 10000 | – | – | – | –
16 | C=CC(=O)N1CCN(C2CN(c3ccc4c(c3)Nc3ncnc(N5CCOCC5)c3CO4)C2)CC1 [compound 4] | 151 | > 10000 nM | > 10000 | – | – | – | –
17 | C=CC(=O)N1CC[C@H](N2CC(c3cc(C)c4c(c3)Nc3ncnc(N5CCS(=O)(=O)CC5)c3CO4)C2)C1 [compound 90] | 232 | 251 nM | ~10000 | – | – | – | –

Second part, led by results:

Row | melting point [°C] | IC50 [1] | IC50 [2] [nM] | Ki [3, 4] | kinact [3, 5] [s⁻¹] | kinact/KI [3, 6] [M⁻¹ s⁻¹] | Compound | further results
18 | 251 | 51.3 nM and 28.2 nM | ~10000 | 0.0288 µM and 0.0678 µM | 4.67e-05 | 1620 | C=CC(=O)N1CC[C@@H](N2CCC(c3cc(C)c4c(c3)Nc3ncnc(N5CCS(=O)(=O)CC5)c3CO4)CC2)C1 (single isomer, unassigned) [compound 114] | CDK7_ A549 mutant hCDK7(pIC50) [2]: <5; CDK7 (20 nM enz.) (kinact, s^−1) ([3]; 20 nM enz.): 8.94e-05 s⁻¹; CDK7 (20 nM enz.) (kinact/ KI, M^−1*s^−1) ([3]; 20 nM enz.): 1318 M⁻¹ s⁻¹
19 | 237 | 81.3 nM and 79.4 nM and 61.7 nM | – | 0.0292 µM | – | – | C=CC(=O)N1CC[C@@H](N2CC(c3cc(C)c4c(c3)Nc3ncnc(N5CCS(=O)(=O)CC5)c3[C@@H](C)O4)C2)C1 (single isomer, unassigned) [compound 122] | CDK7_ A549 mutant hCDK7(pIC50) [2]: <5; CDK7 (20 nM enz.) (kinact, s^−1) ([3]; 20 nM enz.): 4.85e-05 s⁻¹; CDK7 (20 nM enz.) (kinact/ KI, M^−1*s^−1) ([3]; 20 nM enz.): 1658.55 M⁻¹ s⁻¹ and 891.412 M⁻¹ s⁻¹
20 | 233 | 525 nM | > 10000 | 0.0324 µM | 2.16e-05 | 665 | C=CC(=O)N1CC[C@@H](N2CC(c3cc4c(c(C5CC5)c3)O[C@H](C)c3c(ncnc3N3CCS(=O)(=O)CC3)N4)C2)C1 (single isomer, unassigned) [compound 96] | –
21 | 218 | 50.1 nM | 8320 | – | – | – | CC#CC(=O)N1CCC(N2CC(c3cc(C)c4c(c3)Nc3ncnc(N5CCS(=O)(=O)CC5)c3C(C)O4)C2)CC1 (racemic) [compound 123] | –
22 | 227 | 186 nM and 174 nM and 151 nM and 148 nM | > 10000 | – | – | – | C=CC(=O)N1CCC(N2CC(c3cc(C)c4c(c3)Nc3ncnc(N5CCS(=O)(=O)CC5)c3[C@@H](C)O4)C2)CC1 (single isomer, unassigned) [compound 102] | –
23 | 292 | 251 nM and 138 nM | > 10000 | – | – | – | CC#CC(=O)N1CCC(N2CC(c3cc(C)c4c(c3)Nc3ncnc(N5CCS(=O)(=O)CC5)c3[C@@H](C)O4)C2)CC1 (single isomer, unassigned) [compound 124] | –
24 | 244 | 309 nM | > 10000 | – | – | – | CC#CC(=O)N1CCC(C)(N2CC(c3cc(C)c4c(c3)Nc3ncnc(N5CCS(=O)(=O)CC5)c3[C@@H](C)O4)C2)C1 (mixture of isomers) [compound 147] | –
